How the values were obtained:
Type in all cases: functional, organism-based
[1] = test system: Plasmodium falciparum; assay: Antimalarial activity against drug-sensitive Plasmodium falciparum NF54 by SYBR green-based assay
[2] = test system: Plasmodium falciparum; assay: Antimalarial activity against multidrug-resistant Plasmodium falciparum K1 by SYBR green-based assay
[3] = test system: Plasmodium falciparum; assay: Antimalarial activity against multidrug-resistant Plasmodium falciparum W2 by SYBR green-based assay

SMILES	IC50 [1] [nM]	IC50 [2] [nM]	IC50 [3] [nM]
C[C@@H]1CC[C@H]2[C@@H](C)C(=O)O[C@@H]3O[C@@]4(C)CC[C@@H]1[C@]32OO4 [ARTEMISININ]	7	–	–
Fc1cc(Nc2ccnc3ccnn23)c2ncccc2c1	3.9	3.9	–
COc1cc(Nc2ccnc3ccnn23)c2ncccc2c1	14	26	–
Cc1ccc2cccc(Nc3ccnc4ccnn34)c2n1	1700	1200	–
c1cc(Nc2ccnc3ccnn23)c2ccncc2c1	1200	1600	–
Cc1cc(Nc2cccc3cccnc23)n2ncnc2n1	880	760	–
Cc1ccc2cccnc2c1Nc1ccnc2ccnn12	> 2000	> 2000	–
Cc1nc2cccc(Nc3cccc4cccnc34)c2o1	1300	1600	–
N#Cc1cnn2c(Nc3cccc4cccnc34)ccnc12	71	51	–
c1cnc2c(Nc3ccnc4ncnn34)cccc2c1	1400	840	–
O=C1C(O)=C([C@H]2CC[C@H](c3ccc(Cl)cc3)CC2)C(=O)c2ccccc21 [ATOVAQUONE]	–	2.3	–
Cc1cc(Nc2ccnc3ccnn23)c2ncccc2c1	63	38	–
FC(F)(F)c1cc(Nc2ccnc3ccnn23)c2ncccc2c1	42	18	–
c1cc(Nc2ccnc3ccnn23)c2c(c1)OCCO2	> 2000	> 2000	–
Cc1nn2c(Nc3cccc4cccnc34)c(C#N)cnc2c1C	26	27	–
COc1cc(NC(C)CCCN)c2ncccc2c1 (stereo not given) [PRIMAQUINE]	–	–	1470
N#Cc1cnc2cc(C3CC3)nn2c1Nc1cccc2cccnc12	1600	2000	–
Cc1cc(Nc2cccc3cccnc23)n2nccc2n1	< 3.9	6.7	–
c1cnc2c(Oc3ccnc4ccnn34)cccc2c1	> 2000	> 2000	–
c1cnc2c(Nc3ccnc4ccnn34)cccc2c1	5.3	7.8	–
COc1cc(C)c2c(Oc3cccc(C(F)(F)F)c3)c(OC)cc(NC(C)CCCN)c2n1 (stereo not given) [TAFENOQUINE]	–	–	217
Cc1nccc(Nc2cccc3cccnc23)n1	> 500	> 500	–

— ChEMBL document CHEMBL3400088, “Synthesis and in vitro evaluation of novel 8-aminoquinoline-pyrazolopyrimidine hybrids as potent antimalarial agents” (Bioorg Med Chem Lett, 2015)
